{
  "source": "ChEMBL document CHEMBL5579813",
  "about": "“2-(3-Indolyl)acetamides and their oxazoline analogues: Anticancer SAR study” (Bioorg Med Chem Lett, 2024)",
  "key": {"[1]": {"test_system": "BE(2)-C", "assay": "Antiproliferative activity against human BE2C cells assessed as reduction in cell growth incubated for 96 hrs by MTT assay", "assay_type": "functional, cell-based"}, "[2]": {"test_system": "BE(2)-C", "assay": "Antiproliferative activity against human BE2C cells assessed as residual cell viability at 25 uM incubated for 96 hrs by MTT assay relative to control", "assay_type": "functional"}, "[3]": {"assay": "Antiproliferative activity against human fibroblasts assessed as reduction in cell growth incubated for 96 hrs by MTT assay", "assay_type": "toxicity, cell-based, Fibroblast"}, "[4]": {"test_system": "SW-620", "assay": "Antiproliferative activity against human SW620 cells assessed as reduction in cell growth incubated for 96 hrs by MTT assay", "assay_type": "functional, cell-based", "conditions": "SW-620, 96 h"}, "[5]": {"assay": "Antiproliferative activity against human Kelly cells assessed as reduction in cell growth incubated for 96 hrs by MTT assay", "assay_type": "functional, cell-based"}},
  "data": [
    {"compound": "NC(=O)C(c1ccccc1)c1c(-c2ccc3ccccc3c2)[nH]c2ccccc12", "note": "(stereo not drawn)", "values": [
      {"measurement": "IC50", "setting": "[1]", "result": 8.46, "unit": "µM"},
      {"measurement": "Residual cell viability", "setting": "[2]", "result": 19.2, "unit": "%"}
    ]},
    {"compound": "NC(=O)C(c1ccccc1)c1c(-c2ccc3ccccc3c2)[nH]c2ccc(Cl)cc12", "note": "(stereo not drawn)", "values": [
      {"measurement": "Residual cell viability", "setting": "[2]", "result": 144, "unit": "%"}
    ]},
    {"compound": "COc1ccc(C(C(N)=O)c2c(-c3ccccc3)[nH]c3ccccc23)cc1", "note": "(stereo not drawn)", "values": [
      {"measurement": "Residual cell viability", "setting": "[2]", "result": 129, "unit": "%"}
    ]},
    {"compound": "COc1ccc(C(C(N)=O)c2c(-c3ccccc3)[nH]c3ccccc23)cc1OC", "note": "(stereo not drawn)", "values": [
      {"measurement": "Residual cell viability", "setting": "[2]", "result": 16.1, "unit": "%"}
    ]},
    {"compound": "NC(=O)C(c1ccccc1)c1c(-c2ccccc2)[nH]c2ccccc12", "note": "(stereo not drawn)", "values": [
      {"measurement": "Residual cell viability", "setting": "[2]", "result": 185, "unit": "%"}
    ]},
    {"compound": "CC1(C)COC(C(c2ccccc2)c2c(-c3ccccc3)[nH]c3ccccc23)=N1", "note": "(stereo not drawn)", "values": [
      {"measurement": "Residual cell viability", "setting": "[2]", "result": 13.3, "unit": "%"}
    ]},
    {"compound": "COc1ccc(-c2[nH]c3ccccc3c2C(C(N)=O)c2ccccc2)cc1", "note": "(stereo not drawn)", "values": [
      {"measurement": "Residual cell viability", "setting": "[2]", "result": 100, "unit": "%"}
    ]},
    {"compound": "CCc1ccc(C(C2=NC(C)(C)CO2)c2c(-c3ccc(C)c(C)c3)[nH]c3ccccc23)cc1", "note": "(stereo not drawn)", "values": [
      {"measurement": "Residual cell viability", "setting": "[2]", "result": 16.5, "unit": "%"}
    ]},
    {"compound": "COc1ccc(C(C(N)=O)c2c(-c3ccc4ccccc4c3)[nH]c3ccccc23)cc1", "note": "(stereo not drawn)", "values": [
      {"measurement": "IC50", "setting": "[1]", "result": 0.47, "unit": "µM"},
      {"measurement": "Residual cell viability", "setting": "[2]", "result": 13.7, "unit": "%"}
    ]},
    {"compound": "COc1ccc(C(C2=NC(C)(C)CO2)c2c(-c3ccc(C)cc3)[nH]c3ccccc23)cc1", "note": "(stereo not drawn)", "values": [
      {"measurement": "IC50", "setting": "[1]", "result": 9.4, "unit": "µM"},
      {"measurement": "Residual cell viability", "setting": "[2]", "result": 17.2, "unit": "%"}
    ]},
    {"compound": "COc1ccc(-c2[nH]c3ccccc3c2C(C(N)=O)c2ccc(C)cc2)cc1", "note": "(stereo not drawn)", "values": [
      {"measurement": "IC50", "setting": "[1]", "result": 4.65, "unit": "µM"},
      {"measurement": "Residual cell viability", "setting": "[2]", "result": 87, "unit": "%"}
    ]},
    {"compound": "CC(C)c1ccc(C(C(N)=O)c2c(-c3ccccc3)[nH]c3ccccc23)cc1", "note": "(stereo not drawn)", "values": [
      {"measurement": "IC50", "setting": "[1]", "result": 24, "unit": "µM"},
      {"measurement": "Residual cell viability", "setting": "[2]", "result": 88, "unit": "%"}
    ]},
    {"compound": "CC1(C)COC(C(c2ccccc2F)c2c(-c3ccc4c(c3)CCCC4)[nH]c3ccccc23)=N1", "note": "(stereo not drawn)", "values": [
      {"measurement": "IC50", "setting": "[1]", "result": 88, "unit": "µM"},
      {"measurement": "Residual cell viability", "setting": "[2]", "result": 25.6, "unit": "%"}
    ]},
    {"compound": "CCc1ccc(C(C2=NC(C)(C)CO2)c2c(-c3ccc4c(c3)CCCC4)[nH]c3ccccc23)cc1", "note": "(stereo not drawn)", "values": [
      {"measurement": "Residual cell viability", "setting": "[2]", "result": 33.3, "unit": "%"}
    ]},
    {"compound": "NC(=O)C(c1ccc(Cl)cc1)c1c(-c2ccc3ccccc3c2)[nH]c2ccccc12", "note": "(stereo not drawn)", "values": [
      {"measurement": "IC50", "setting": "[1]", "result": 0.79, "unit": "µM"},
      {"measurement": "Residual cell viability", "setting": "[2]", "result": 13.9, "unit": "%"}
    ]},
    {"compound": "COc1ccccc1C(C1=NC(C)(C)CO1)c1c(-c2ccc3c(c2)CCCC3)[nH]c2ccccc12", "note": "(stereo not drawn)", "values": [
      {"measurement": "IC50", "setting": "[1]", "result": 20, "unit": "µM"},
      {"measurement": "Residual cell viability", "setting": "[2]", "result": 42, "unit": "%"}
    ]},
    {"compound": "NC(=O)C(c1ccccc1Cl)c1c(-c2ccc3ccccc3c2)[nH]c2ccccc12", "note": "(stereo not drawn)", "values": [
      {"measurement": "IC50", "setting": "[1]", "result": 0.96, "unit": "µM"},
      {"measurement": "Residual cell viability", "setting": "[2]", "result": 132, "unit": "%"}
    ]},
    {"compound": "CCc1ccc(C(C2=NC(C)(C)CO2)c2c(-c3ccc(C)cc3)[nH]c3ccccc23)cc1", "note": "(stereo not drawn)", "values": [
      {"measurement": "Residual cell viability", "setting": "[2]", "result": 189, "unit": "%"}
    ]},
    {"compound": "NC(=O)C(c1cccc(Cl)c1)c1c(-c2ccc3ccccc3c2)[nH]c2ccccc12", "note": "(stereo not drawn)", "values": [
      {"measurement": "Residual cell viability", "setting": "[2]", "result": 142, "unit": "%"}
    ]},
    {"compound": "COc1ccc(C(C2=NC(C)(C)CO2)c2c(-c3ccc(C)c(C)c3)[nH]c3ccccc23)cc1", "note": "(stereo not drawn)", "values": [
      {"measurement": "Residual cell viability", "setting": "[2]", "result": 135, "unit": "%"}
    ]},
    {"compound": "Cc1ccc(C(C(N)=O)c2c(-c3ccc4ccccc4c3)[nH]c3ccccc23)cc1", "note": "(stereo not drawn)", "values": [
      {"measurement": "IC50", "setting": "[1]", "result": 0.29, "unit": "µM"},
      {"measurement": "Residual cell viability", "setting": "[2]", "result": 14.5, "unit": "%"},
      {"measurement": "IC50 at 96 h", "setting": "[3]", "result": 75.7, "unit": "µM"},
      {"measurement": "IC50", "setting": "[4]", "result": 0.37, "unit": "µM"},
      {"measurement": "IC50", "setting": "[5]", "result": 0.93, "unit": "µM"}
    ]},
    {"compound": "CC1(C)COC(C(c2ccccc2)c2c(-c3ccc4ccccc4c3)[nH]c3ccccc23)=N1", "note": "(stereo not drawn)", "values": [
      {"measurement": "Residual cell viability", "setting": "[2]", "result": 128, "unit": "%"}
    ]},
    {"compound": "NC(=O)C(c1ccc(Cl)cc1)c1c(-c2ccccc2)[nH]c2ccccc12", "note": "(stereo not drawn)", "values": [
      {"measurement": "IC50", "setting": "[1]", "result": 0.99, "unit": "µM"},
      {"measurement": "Residual cell viability", "setting": "[2]", "result": 14.1, "unit": "%"}
    ]},
    {"compound": "Cc1ccc(-c2[nH]c3ccccc3c2C(C2=NC(C)(C)CO2)c2ccccc2)cc1", "note": "(stereo not drawn)", "values": [
      {"measurement": "Residual cell viability", "setting": "[2]", "result": 134, "unit": "%"}
    ]},
    {"compound": "COc1ccc(-c2[nH]c3ccccc3c2C(C(N)=O)c2ccccc2OC)cc1", "note": "(stereo not drawn)", "values": [
      {"measurement": "IC50", "setting": "[1]", "result": 7.34, "unit": "µM"},
      {"measurement": "Residual cell viability", "setting": "[2]", "result": 178, "unit": "%"}
    ]},
    {"compound": "NC(=O)C(c1ccccc1)c1c(-c2ccccc2)[nH]c2ccc(Cl)cc12", "note": "(stereo not drawn)", "values": [
      {"measurement": "IC50", "setting": "[1]", "result": 14, "unit": "µM"},
      {"measurement": "Residual cell viability", "setting": "[2]", "result": 136, "unit": "%"}
    ]},
    {"compound": "CC1(C)COC(C(c2ccccc2Cl)c2c(-c3ccc4c(c3)CCCC4)[nH]c3ccccc23)=N1", "note": "(stereo not drawn)", "values": [
      {"measurement": "IC50", "setting": "[1]", "result": 6.1, "unit": "µM"},
      {"measurement": "Residual cell viability", "setting": "[2]", "result": 34.3, "unit": "%"}
    ]},
    {"compound": "COc1ccc(-c2[nH]c3ccccc3c2C(C(N)=O)c2ccccc2OC)cc1OC", "note": "(stereo not drawn)", "values": [
      {"measurement": "Residual cell viability", "setting": "[2]", "result": 169, "unit": "%"}
    ]},
    {"compound": "COc1ccc(C(C(N)=O)c2c(-c3ccc4ccccc4c3)[nH]c3ccccc23)cc1OC", "note": "(stereo not drawn)", "values": [
      {"measurement": "IC50", "setting": "[1]", "result": 0.25, "unit": "µM"},
      {"measurement": "Residual cell viability", "setting": "[2]", "result": 49.2, "unit": "%"},
      {"measurement": "IC50 at 96 h", "setting": "[3]", "result": 192, "unit": "µM"},
      {"measurement": "IC50", "setting": "[4]", "result": 1.71, "unit": "µM"},
      {"measurement": "IC50", "setting": "[5]", "result": 0.23, "unit": "µM"}
    ]},
    {"compound": "NC(=O)C(c1ccccc1Cl)c1c(-c2ccccc2)[nH]c2ccccc12", "note": "(stereo not drawn)", "values": [
      {"measurement": "Residual cell viability", "setting": "[2]", "result": 13.9, "unit": "%"}
    ]},
    {"compound": "Cc1ccc(-c2[nH]c3ccccc3c2C(C(N)=O)c2ccccc2)cc1", "note": "(stereo not drawn)", "values": [
      {"measurement": "Residual cell viability", "setting": "[2]", "result": 159, "unit": "%"}
    ]},
    {"compound": "Cc1ccc(C(C(N)=O)c2c(-c3ccccc3)[nH]c3ccccc23)cc1", "note": "(stereo not drawn)", "values": [
      {"measurement": "Residual cell viability", "setting": "[2]", "result": 151, "unit": "%"}
    ]},
    {"compound": "NC(=O)C(c1cccc(Cl)c1)c1c(-c2ccccc2)[nH]c2ccccc12", "note": "(stereo not drawn)", "values": [
      {"measurement": "Residual cell viability", "setting": "[2]", "result": 14.1, "unit": "%"}
    ]},
    {"compound": "COc1ccccc1C(C(N)=O)c1c(-c2ccccc2)[nH]c2ccccc12", "note": "(stereo not drawn)", "values": [
      {"measurement": "Residual cell viability", "setting": "[2]", "result": 147, "unit": "%"}
    ]},
    {"compound": "CC1(C)COC(C(c2ccc(Cl)cc2)c2c(-c3ccc4c(c3)CCCC4)[nH]c3ccccc23)=N1", "note": "(stereo not drawn)", "values": [
      {"measurement": "IC50", "setting": "[1]", "result": 18.8, "unit": "µM"},
      {"measurement": "Residual cell viability", "setting": "[2]", "result": 145, "unit": "%"}
    ]},
    {"compound": "COc1ccccc1C(C(N)=O)c1c(-c2ccc3ccccc3c2)[nH]c2ccccc12", "note": "(stereo not drawn)", "values": [
      {"measurement": "IC50", "setting": "[1]", "result": 0.28, "unit": "µM"},
      {"measurement": "Residual cell viability", "setting": "[2]", "result": 42.4, "unit": "%"},
      {"measurement": "IC50 at 96 h", "setting": "[3]", "result": 155, "unit": "µM"},
      {"measurement": "IC50", "setting": "[4]", "result": 1.41, "unit": "µM"},
      {"measurement": "IC50", "setting": "[5]", "result": 1.33, "unit": "µM"}
    ]},
    {"compound": "CC1=C(/C=C/C(C)=C/C=C/C(C)=C/C(=O)O)C(C)(C)CCC1", "note": "[TRETINOIN]", "values": [
      {"measurement": "IC50", "setting": "[1]", "result": 6.7, "unit": "µM"}
    ]}
  ]
}
